# Assay results: publication PMC11314410, “Synthesis and Anti-Trypanosoma cruzi Activity of New Pyrazole-Thiadiazole Scaffolds” (Molecules, 2024)
# Where “and” joins values, the source holds several entries; their conditions need not be identical. Identical values can stand only once. Like-named read-outs stand apart in the source and are kept apart here.
# How the values were obtained:
# [1] = system: Trypomastigotes of T. cruzi (Dm28c-Luc); experiment: microbe, parasite or virus in culture; assay type: cell-based, Trypanosoma cruzi; conditions: for IC50 / IC90: 24 h treatment; for IC50: mean ± SD, read-out: Anti-T. cruzi Activity Trypomastigotes IC50; for IC90: read-out: Anti-T. cruzi Activity Trypomastigotes IC90
# Protocol: (§1) Genetically modified T. cruzi parasites, of clone Dm28c (TcI) expressing the firefly luciferase enzyme gene (Dm28c-Luc), were kindly provided by Dr. Cristina Henriques. T. cruzi Dm28c-Luc was maintained in a Vero cell cultivated in RPMI 1640 medium supplemented with 10% FBS. At 4-day post-infection (dpi), trypomastigotes, released in the cell culture supernatant, were harvested, followed by sedimentation (4000 rpm/20 min/4 °C) and quantification in a Neubauer chamber. Isolated trypomastigotes were used in the phenotypic screening assays as well as the antiparasitic activity in 3D cardiac microtissues, recovery (washout), and drug combination assays.
# Drug screening was performed against clinically relevant forms of T. cruzi (amastigotes and trypomastigotes). Trypomastigotes, Dm28c-Luc (1 × 10^6 parasites/well), were added to 96-well plates and incubated with pyrazole-thiadiazole derivatives or Bz (100–0.41 µM). After 24 h of treatment (37 °C), the viability of the parasites was analyzed by adding a D-Luciferin solution (300 µg/mL) and luminescence was measured in the Glomax microplate reader.
# [2] = system: Intracellular amastigotes of T. cruzi (Dm28c-Luc); experiment: microbe, parasite or virus in culture; assay type: cell-based, Trypanosoma cruzi; conditions: for IC50 / IC90: Trypanosoma cruzi; for IC90: read-out: Anti-T. cruzi Activity Intracellular Amastigotes IC90
# Protocol: as §1
# The activity of pyrazole-thiadiazole derivatives against intracellular amastigotes was evaluated in 24 h-T. cruzi infected Vero cell cultures (1.5 × 10^4 cells/well) at a 10:1 ratio. The cultures were washed and incubated with serial dilutions of the derivatives or Bz (100–0.41 µM). Drug treatment was carried out for 72 h at 37 °C and the parasite viability was determined by luminescence readout after D-Luciferin substrate addition (300 µg/mL). The reading was performed in the Glomax reader. The cell cultures incubated with the culture medium containing dimethylsulphoxide (DMSO; concentration ≤ 1%) were used as the […]. The concentrations required to inhibit parasite viability by 50% (IC50) and 90% (IC90) were calculated using Prism GraphPad software (version 8.2.1). The selectivity index (SI), which measures the window between cytotoxicity (CC50) and anti-T. cruzi activity (IC50), was calculated as CC50/IC50. A minimum of 3 independent assays in duplicate were performed.
# [3] = Toxicity in mammalian cells (CellTiter Glo, 72 h); assay type: cell-based; conditions: African green monkey, Vero cells; 72 h, ATP levels; read-out: Cytotoxicity Vero Cells CC50
# Protocol: (§2) Vero cell cultures grown in RPMI 1640 medium containing 10% fetal bovine serum (FBS) were cultured at 37 °C in a humidified atmosphere of 5% CO2 [82]. The cultures were used for drug screening assays and to obtain culture-derived trypomastigotes of T. cruzi.
# (§3) Vero cells (1.5 ×10^4 cells/well), cultivated for 24 h at 37 °C in white 96-well plates with clear bottoms, were used to assess the toxicity of the pyrazole-thiadiazole derivatives (series 1 and 2). After washing, the cells were incubated for 72 h at 37 °C with different drug concentrations (500–1.95 μM). Cell viability was measured by adding 20 μL/well of CellTiter Glo reagent (Promega Corporation, Madison, WI, USA). This cell viability kit generates a luminescent signal proportional to the amount of ATP. The luminescence readout was performed using the Glomax Microplate Reader (Promega Corporation, Madison, WI, USA). Thus, the 50% cytotoxicity concentration (CC50), which reduces the cell viability by 50% (CC50), was calculated with Prism GraphPad software (version 8.2.1).
# [4] = system: Vero cells; experiment: Toxicity in mammalian cells (CellTiter Glo, 72 h); assay type: cell-based
# Protocol: as §2, §3
# [5] = Cardiac toxicity in 2D cardiac monolayers (CellTiter-Glo, 72 h); assay type: cell-based, Swiss webster mice; conditions: Swiss webster, mouse, primary cardiac muscle cell monolayers (2D culture), ATP levels
# Protocol: The primary culture of heart muscle cells was obtained from fetuses of Swiss webster mice. The heart was removed and the ventricles were fragmented and subjected to dissociation with trypsin and collagenase type II (Worthington Biochemical Corporation, Lakewood, USA) dissociation solution. Cell monolayers were employed to evaluate drug-induced cardiotoxicity.
# (§4) The 2D cardiac cultures (5 × 10^4 cells/well) and 3D cardiac microtissues (2.5 × 10^4 cells/well) were incubated for 72 h at 37 °C with pyrazole-thiadiazole candidates followed by ATP detection by CellTiter-Glo [86]. A minimum of 3 independent assays were performed in duplicate.
# [6] = Cardiac toxicity in 3D cardiac spheroids (CellTiter-Glo, 72 h); assay type: cell-based, Swiss webster mice; conditions: Swiss webster, mouse, 3D cardiac microtissue (cardiac spheroids), ATP levels, read-out: Toxicity CC50 3D Culture
# Protocol: (§5) Three-dimensional (3D) cardiac cells were obtained as previously described. Briefly, isolated cardiac muscle cells (2.5 × 10^4 cells/well) were seeded in 96-well U-bottom plates coated with agarose (1%) to form cell aggregates. Cardiac microtissue (7 days in culture) was employed to determine cardiotoxicity and drug efficacy in more complex systems. All animal-use procedures were approved by the Animal Care and Use Committee of Instituto Oswaldo Cruz (license L017/2022-A2).
# as §4
# [7] = system: T. cruzi (Dm28c-Luc) intracellular parasites in 3D cardiac spheroids; experiment: Antiparasitic activity in T. cruzi-infected 3D cardiac microtissues; assay type: cell-based, Trypanosoma cruzi; conditions: 72 h; for inhibition at 100 µM: Trypanosoma cruzi, read-out: Inhibition of parasite load in 3D cardiac microtissue
# Protocol: as §5
# Cardiac spheroids (2.5 × 10^4 cells/well), formed after 7 days of cultivation in a U-bottom plate, were infected for 24 h with trypomastigote forms of T. cruzi (Dm28c-Luc) at a ratio of 20:1 parasite-host cell. After washing, the drugs were added at concentrations of IC90, two times IC90, and 100 µM, respecting the CC20 value of cardiac spheroids as the maximum concentration. Bz was added at 100 µM. Luminescence measurements, which reveal the luciferase activity of the viable parasites, were performed after the addition of D-luciferin substrate (300 µg/mL). The luminescent signal was read in the Glomax reader and the results were represented in arbitrary luminescence units (ALU). The fluorescence microscopy images were also acquired from untreated and drug-treated infected 3D microtissues. Three-dimensional cultures were fixed with 4% paraformaldehyde in PBS and labeled with 4′,6-diamidino-2-phenylindole (DAPI). Images were acquired using a Zeiss Axio Imager M2 fluorescence microscope using Axio vision software (version 4.8).
# [8] = system: T. cruzi (Dm28c-Luc) in Vero cell cultures; experiment: Washout (recovery) assay in T. cruzi-infected Vero cell cultures; assay type: cell-based, Trypanosoma cruzi; conditions: for ALUmean of parasite load in cell monolayer, washout assay: 10 days treatment + 10 days without drug
# Protocol: The culture medium of the untreated and treated infected cultures was replaced every 3 or 4 days by a fresh medium with or without the pyrazole-thiadiazole derivatives. The presence of free viable parasites in the culture supernatant was monitored at each medium change by adding luciferin (300 µg/mL) followed by readout on a Glomax microplate reader. At the endpoint, culture supernatants and cell monolayers were evaluated for viable parasites. Positive and negative controls were performed using Bz (150 µM) and DMSO (≤1%), respectively. A minimum of 3 independent experimental runs were performed with 12 replicates.
# [9] = system: T. cruzi in 3D cardiac spheroids; set-up: method as in PMID 33383023; conditions: 10 µM; cited from earlier work
# [10] = system: T. cruzi infection of HeLa spheroids; set-up: method as in PMID 36099853; conditions: 40 µM pretreatment of HeLa spheroids; cited from earlier work
# [11] = Vero, read-out: Intracellular Amastigotes pIC50 (converted)
# [12] = Dm28c-Luc in Vero cells, 72 h treatment, mean ± SD, read-out: Anti-T. cruzi Activity Intracellular Amastigotes IC50
# [13] = Dm28c-Luc in Vero cells, 72 h treatment, mean ± SD
smiles,measurement,setting,value
"Nc1nnc(-c2cnn(-c3ccc(Cl)cc3Cl)c2)s1 [1c, 5-Amino-2-(1-(2,4-dichlorophenyl)-1H-pyrazol-4-yl)-1,3,4-thiadiazole]",Trypomastigotes IC75,"[1]; Dm28c-Luc, 24 h",54.6 µM and 54.66 µM
same,IC50,[1]; Dm28c-Luc,21.7 ± 2.94 µM
same,IC50,"[1]; Trypanosoma cruzi, 24 h, Dm28c-Luc",21.7 µM
same,IC90,"[1]; Trypanosoma cruzi, Dm28c-Luc",> 100 µM
same,IC50,[2]; [11],13.5 µM
same,IC50,[2]; [12],13.5 ± 4.47 µM
same,IC90,[2]; [13],42.3 ± 3.47 µM
same,CC50 at 72 h,[3],> 500 µM
same,CC20 for Vero cell monolayers,[4],> 500 µM
same,CC50 at 72 h,[5],> 500 µM
same,CC50 at 72 h,[6],> 500 µM
same,"ALUmean (luminescence, parasite load) in 3D cardiac microtissue",[7]; 100 µM,"17,078 ± 2407 ALU"
same,inhibition at 100 µM,"[7]; 100 µM, vs infected untreated",57%
same,"ALUmean of parasite load in cell monolayer, washout assay",[8]; 150 µM,"57,103 ± 15,228 ALU"
same,"ALUmean of parasite load in cell monolayer, washout assay",[8]; 300 µM,"66,378 ± 14,991 ALU"
same,inhibition at 150 µM,"[8]; Trypanosoma cruzi, Vero, 150 µM, 11 dpi, read-out: Inhibition in the release of trypomastigotes",52%
same,inhibition at 300 µM,"[8]; Trypanosoma cruzi, Vero, 300 µM, 11 dpi, read-out: Inhibition in the release of trypomastigotes",66%
same,Prevention of reactivation of infection after drug withdrawal,[8]; washout assay,trypanostatic action
same,melting point,,284 to 285 °C
"O=C(Cn1ccnc1[N+](=O)[O-])NCc1ccccc1 [Bz, benznidazole, reference compound]",Trypomastigotes SI (CC50 of Vero cells/IC50 of trypomastigotes),[1],>38.88
same,IC50,"[1]; Trypanosoma cruzi, Dm28c-Luc",12.8 ± 2.66 µM
same,IC90,"[1]; Trypanosoma cruzi, Dm28c-Luc",> 100 µM
same,Intracellular Amastigotes SI (CC50 of Vero cells/IC50 of intracellular amastigotes),[2],>158.23
same,IC50,[2]; [11],3.63 µM
same,IC50,[2]; [12],3.61 ± 1.25 µM
same,IC90,[2]; [13],11.5 ± 4.17 µM
same,CC50 at 72 h,[3],> 500 µM
same,CC50 at 72 h,[5],> 500 µM
same,CC50 at 72 h,[6],> 500 µM
same,"ALUmean (luminescence, parasite load) in 3D cardiac microtissue",[7]; 100 µM,3520 ± 2198 ALU
same,inhibition at 100 µM,[7],91%
same,"ALUmean of parasite load in cell monolayer, washout assay",[8]; 150 µM,3426 ± 1727 ALU
same,inhibition at 150 µM,"[8]; Trypanosoma cruzi, Vero, read-out: Inhibition in the release of trypomastigotes",77%
same,inhibition at 150 µM,"[8]; Trypanosoma cruzi, Vero, read-out: Inhibition of parasite release",82%
same,Reduction of parasite load,[9],92%
Oc1ccc(/C=C/c2cc(O)cc(O)c2)cc1 [resveratrol],Reduction of T. cruzi infection level,[10],50%
